pIC50: −log10 of the molar value. Where two headings read alike, the source gives them in different places.
Tests used:
Format in all cases: biochemical
FGFR2 = FGFR2 (Homo sapiens (Human), UniProt P21802); test: FGFR enzymatic assay (FRET peptide phosphorylation), FGFR2
Procedure, shortened: (§1)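 Recombinant kinase was pre-incubated 5–10 min with serially diluted inhibitor in HEPES buffer (10 mM MgCl2, 5 mM DTT, pH 7.5; buffer described for FGFR3). Peptide phosphorylation ran 1 h at 25 °C and was detected by FRET after ~1 h equilibration. IC50 values come from variable-slope sigmoidal fits.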

FGFR3 = FGFR3 (Homo sapiens (Human), UniProt P22607); test: FGFR enzymatic assay (FRET peptide phosphorylation), FGFR3
Procedure, shortened: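 FRET assay of peptide phosphorylation by FGFR3 in HEPES pH 7.5 buffer with MgCl2, EGTA, Tween-20 and DTT. Enzyme was pre-incubated 5-10 min with compound, and the reaction ran 1 hr at 25° C. IC50 came from a variable-slope sigmoidal fit.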

FGFR1 = FGFR1 (Homo sapiens (Human), UniProt P11362); test: FGFR enzymatic assay (FRET peptide phosphorylation), FGFR1
Procedure, shortened: as §1

[1] = FGFR2 enzyme 0.01 nM, ATP 100 μM
[2] = FGFR3 enzyme (Millipore), ATP 140 μM
[3] = FGFR1 enzyme 0.02 nM, ATP 210 μM

Measured: pIC50

Sequence of FGFR1 (P11362 22-822): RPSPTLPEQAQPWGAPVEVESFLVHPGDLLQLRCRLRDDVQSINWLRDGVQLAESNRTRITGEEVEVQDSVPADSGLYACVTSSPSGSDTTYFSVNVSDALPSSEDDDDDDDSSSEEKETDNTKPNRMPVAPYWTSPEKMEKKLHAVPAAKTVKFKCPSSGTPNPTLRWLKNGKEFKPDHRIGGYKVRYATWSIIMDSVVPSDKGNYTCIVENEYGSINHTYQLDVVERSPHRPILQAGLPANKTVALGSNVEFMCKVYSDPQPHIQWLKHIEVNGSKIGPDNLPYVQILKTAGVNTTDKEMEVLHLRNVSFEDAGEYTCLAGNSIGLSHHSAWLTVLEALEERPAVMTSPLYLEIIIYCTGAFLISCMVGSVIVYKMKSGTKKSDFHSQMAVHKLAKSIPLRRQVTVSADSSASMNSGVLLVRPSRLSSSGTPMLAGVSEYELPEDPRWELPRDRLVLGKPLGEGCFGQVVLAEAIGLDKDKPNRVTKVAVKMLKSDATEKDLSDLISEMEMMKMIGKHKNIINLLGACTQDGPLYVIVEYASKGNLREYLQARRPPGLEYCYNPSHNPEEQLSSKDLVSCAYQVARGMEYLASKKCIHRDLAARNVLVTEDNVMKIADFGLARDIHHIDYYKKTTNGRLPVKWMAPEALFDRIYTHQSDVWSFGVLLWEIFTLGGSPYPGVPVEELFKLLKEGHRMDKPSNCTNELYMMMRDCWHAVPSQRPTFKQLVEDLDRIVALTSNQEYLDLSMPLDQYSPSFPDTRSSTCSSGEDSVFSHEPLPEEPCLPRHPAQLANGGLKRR
Sequence of FGFR2 (P21802 22-821): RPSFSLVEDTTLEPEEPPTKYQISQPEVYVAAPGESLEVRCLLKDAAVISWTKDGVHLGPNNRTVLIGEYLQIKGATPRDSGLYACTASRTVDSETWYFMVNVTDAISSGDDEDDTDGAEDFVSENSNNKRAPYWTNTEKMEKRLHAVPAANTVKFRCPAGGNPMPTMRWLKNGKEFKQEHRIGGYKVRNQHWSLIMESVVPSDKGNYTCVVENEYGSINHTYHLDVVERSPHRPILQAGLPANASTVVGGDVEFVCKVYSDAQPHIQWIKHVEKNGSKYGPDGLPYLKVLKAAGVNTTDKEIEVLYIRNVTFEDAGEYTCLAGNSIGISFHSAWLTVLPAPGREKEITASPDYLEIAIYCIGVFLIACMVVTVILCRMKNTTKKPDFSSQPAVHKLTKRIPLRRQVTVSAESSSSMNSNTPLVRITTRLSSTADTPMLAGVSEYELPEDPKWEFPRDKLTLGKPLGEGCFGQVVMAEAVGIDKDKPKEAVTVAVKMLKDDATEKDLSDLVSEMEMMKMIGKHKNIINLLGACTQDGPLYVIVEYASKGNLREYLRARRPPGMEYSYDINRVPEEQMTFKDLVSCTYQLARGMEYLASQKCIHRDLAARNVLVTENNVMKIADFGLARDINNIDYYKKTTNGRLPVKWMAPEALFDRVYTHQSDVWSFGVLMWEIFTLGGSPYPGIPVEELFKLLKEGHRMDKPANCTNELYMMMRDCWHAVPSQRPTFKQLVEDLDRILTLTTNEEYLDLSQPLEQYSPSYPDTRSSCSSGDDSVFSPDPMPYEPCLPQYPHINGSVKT
Sequence of FGFR3 (P22607 23-806): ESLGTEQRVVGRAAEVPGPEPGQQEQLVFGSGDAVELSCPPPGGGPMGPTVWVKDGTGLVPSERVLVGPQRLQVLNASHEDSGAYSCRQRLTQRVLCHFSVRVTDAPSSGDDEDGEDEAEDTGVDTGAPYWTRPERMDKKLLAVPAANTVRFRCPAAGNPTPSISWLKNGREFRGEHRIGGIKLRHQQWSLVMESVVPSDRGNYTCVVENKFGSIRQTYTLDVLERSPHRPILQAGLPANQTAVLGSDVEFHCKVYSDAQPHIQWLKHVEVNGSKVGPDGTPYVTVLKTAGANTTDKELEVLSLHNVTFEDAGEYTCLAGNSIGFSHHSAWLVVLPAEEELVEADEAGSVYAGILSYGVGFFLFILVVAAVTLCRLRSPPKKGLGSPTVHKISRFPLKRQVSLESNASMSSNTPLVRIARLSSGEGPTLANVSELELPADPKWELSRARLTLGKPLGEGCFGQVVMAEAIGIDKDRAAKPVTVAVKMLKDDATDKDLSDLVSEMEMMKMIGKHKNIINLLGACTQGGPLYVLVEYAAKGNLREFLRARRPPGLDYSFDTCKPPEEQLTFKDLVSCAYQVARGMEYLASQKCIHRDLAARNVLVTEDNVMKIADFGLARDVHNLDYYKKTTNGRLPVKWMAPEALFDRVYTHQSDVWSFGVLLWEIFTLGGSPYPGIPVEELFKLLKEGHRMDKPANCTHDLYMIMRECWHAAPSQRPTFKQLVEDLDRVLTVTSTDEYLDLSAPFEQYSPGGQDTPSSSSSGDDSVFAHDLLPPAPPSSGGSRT

COc1cc(OC)c(F)c(N2Cc3cnc4[nH]c(CN[C@@H]5CCOC5)cc4c3N(C)C2=O)c1F [Example 136, 3-(2,6-difluoro-3,5-dimethoxyphenyl)-1-methyl-8-{[(3R)-tetrahydrofuran-3-ylamino]methyl}-1,3,4,7-tetrahydro-2Hpyrrolo[3′,2′:5,6]pyrido[4,3-d]pyrimidin-2-one]
> 7.00: FGFR2; [1] | FGFR3; [2] | FGFR1; [3]

COc1cc(OC)c(F)c(N2Cc3cnc4[nH]c(Cn5ccnc5)cc4c3N(C)C2=O)c1F [Example 137, 3-(2,6-difluoro-3,5-dimethoxyphenyl)-8-(1H-imidazol-1-ylmethyl)-1-methyl-1,3,4,7-tetrahydro-2H-pyrrolo[3′,2′:5,6]pyrido[4,3-d]pyrimidin-2-one]
> 7.00: FGFR2; [1] | FGFR3; [2] | FGFR1; [3]

COc1cc(OC)c(F)c(N2Cc3cnc4[nH]c(Cn5cccn5)cc4c3N(C)C2=O)c1F [Example 138, 3-(2,6-difluoro-3,5-dimethoxyphenyl)-1-methyl-8-(1H-pyrazol-1-ylmethyl)-1,3,4,7-tetrahydro-2H-pyrrolo[3′,2′:5,6]pyrido[4,3-d]pyrimidin-2-one]
> 7.00: FGFR2; [1] | FGFR3; [2] | FGFR1; [3]

COc1cc(OC)c(F)c(N2Cc3cnc4[nH]c(Cc5cnn(C)c5)cc4c3N(C)C2=O)c1F [Example 139, 3-(2,6-difluoro-3,5-dimethoxyphenyl)-1-methyl-8-[(1-methyl-1H-pyrazol-4-yl)methyl]-1,3,4,7-tetrahydro-2H-pyrrolo[3′,2′:5,6]pyrido[4,3-d]pyrimidin-2-one]
> 7.00: FGFR2; [1] | FGFR3; [2] | FGFR1; [3]

COc1cc(OC)c(F)c(N2Cc3cnc4[nH]c(CCc5ccccn5)cc4c3N(C)C2=O)c1F [Example 140, 3-(2,6-difluoro-3,5-dimethoxyphenyl)-1-methyl-8-(2-pyridin-2-ylethyl)-1,3,4,7-tetrahydro-2H-pyrrolo[3′,2′:5,6]pyrido[4,3-d]pyrimidin-2-one]
> 7.00: FGFR2; [1] | FGFR3; [2] | FGFR1; [3]

CCN1C(=O)N(c2c(F)c(OC)cc(OC)c2Cl)Cc2cnc3[nH]c(CN4CCOCC4)cc3c21 [Example 141, 3-(2-chloro-6-fluoro-3,5-dimethoxyphenyl)-1-ethyl-8-(morpholin-4-ylmethyl)-1,3,4,7-tetrahydro-2H-pyrrolo[3′,2′:5,6]pyrido[4,3-d]pyrimidin-2-one]
> 7.00: FGFR2; [1] | FGFR3; [2] | FGFR1; [3]

COc1cc(OC)c(F)c(N2Cc3cnc4[nH]c(CCN5CC(F)C5)cc4c3N(C)C2=O)c1F [Example 143, 3-(2,6-difluoro-3,5-dimethoxyphenyl)-8-[2-(3-fluoroazetidin-1-yl)ethyl]-1-methyl-1,3,4,7-tetrahydro-2Hpyrrolo[3′,2′:5,6]pyrido[4,3-d]pyrimidin-2-one]
> 7.00: FGFR2; [1] | FGFR3; [2] | FGFR1; [3]

COc1cc(OC)c(F)c(N2Cc3cnc4[nH]c(CCN5CC(OC)C5)cc4c3N(C)C2=O)c1F [Example 144, 3-(2,6-difluoro-3,5-dimethoxyphenyl)-8-[2-(3-methoxyazetidin-1-yl)ethyl]-1-methyl-1,3,4,7-tetrahydro-2Hpyrrolo[3′,2′:5,6]pyrido[4,3-d]pyrimidin-2-one]
> 7.00: FGFR2; [1] | FGFR3; [2] | FGFR1; [3]

COc1cc(OC)c(Cl)c(N2Cc3cnc4[nH]ncc4c3N(c3cnn(C)c3)C2=O)c1F [Example 145, 3-(2-chloro-6-fluoro-3,5-dimethoxyphenyl)-1-(1-methyl-1H-pyrazol-4-yl)-1,3,4,7-tetrahydro-2H-pyrazolo[4′,3′:5,6]pyrido[4,3-d]pyrimidin-2-one]
> 7.00: FGFR2; [1] | FGFR3; [2] | FGFR1; [3]

COc1cc(OC)c(F)c(N2Cc3cnc4[nH]c(CCN5CCOCC5)cc4c3N(CCO)C2=O)c1F [Example 146, 3-(2,6-difluoro-3,5-dimethoxyphenyl)-1-(2-hydroxyethyl)-8-(2-morpholin-4-ylethyl)-1,3,4,7-tetrahydro-2H-pyrrolo[3′,2′:5,6]pyrido[4,3-d]pyrimidin-2-one]
> 7.00: FGFR2; [1] | FGFR3; [2] | FGFR1; [3]

COc1cc(OC)c(F)c(N2Cc3cnc4c(c3N(c3ncccc3Cl)C2=O)CC(=O)N4)c1F [Example 147, 1-(3-chloropyridin-2-yl)-3-(2,6-difluoro-3,5-dimethoxyphenyl)-3,4,7,9-tetrahydro-1H-pyrrolo[3′,2′:5,6]pyrido[4,3-d]pyrimidine-2,8-dione]
> 7.00: FGFR2; [1] | FGFR3; [2] | FGFR1; [3]

COc1cc(OC)c(F)c(N2Cc3cnc4[nH]ccc4c3C3(CCC3)C2=O)c1F [Example 148, 7′-(2,6-difluoro-3,5-dimethoxyphenyl)-6′,7′-dihydrospiro[cyclobutane-1,9′-pyrrolo[2,3-c][2,7]naphthyridin]-8′(3′H)-one]
> 7.00: FGFR2; [1] | FGFR3; [2] | FGFR1; [3]

COc1cc(OC)c(F)c(N2Cc3cnc4[nH]ccc4c3C3(CCCC3)C2=O)c1F [Example 149, 7′-(2,6-difluoro-3,5-dimethoxyphenyl)-6′,7′-dihydrospiro[cyclopentane-1,9′-pyrrolo[2,3-c][2,7]naphthyridin]-8′(3′H)-one]
> 7.00: FGFR2; [1] | FGFR3; [2] | FGFR1; [3]

COc1cc(OC)c(F)c(N2Cc3cnc4[nH]ccc4c3C3(CCOCC3)C2=O)c1F [Example 150, 7′-(2,6-difluoro-3,5-dimethoxyphenyl)-2,3,5,6,6′,7′-hexahydrospiro[pyran-4,9′-pyrrolo[2,3-c][2,7]naphthyridin]-8′(3′H)-one]
> 7.00: FGFR2; [1] | FGFR3; [2] | FGFR1; [3]

COc1cc(OC)c(F)c(N2Cc3cnc4[nH]ccc4c3C3(CCN(C)CC3)C2=O)c1F [Example 151, 7′-(2,6-difluoro-3,5-dimethoxyphenyl)-1-methyl-6′,7′-dihydrospiro[piperidine-4,9′-pyrrolo[2,3-c][2,7]naphthyridin]-8′(3′H)-one]
> 7.00: FGFR2 | FGFR3 | FGFR1

COc1cc(OC)c(F)c(N2Cc3cnc4[nH]c(CN5CCOCC5)cc4c3C(C)(C)C2=O)c1F [Example 152, 7-(2,6-difluoro-3,5-dimethoxyphenyl)-9,9-dimethyl-2-(morpholin-4-ylmethyl)-3,6,7,9-tetrahydro-8H-pyrrolo[2,3-c]-2,7-naphthyridin-8-one]
> 7.00: FGFR2; [1] | FGFR3; [2] | FGFR1; [3]

COc1cc(OC)c(F)c(N2Cc3cnc4[nH]c(CN5CCN(C)CC5)cc4c3C(C)(C)C2=O)c1F [Example 153, 7-(2,6-difluoro-3,5-dimethoxyphenyl)-9,9-dimethyl-2-[(4-methylpiperazin-1-yl)methyl]-3,6,7,9-tetrahydro-8H-pyrrolo[2,3-c]-2,7-naphthyridin-8-one]
> 7.00: FGFR2; [1] | FGFR3; [2] | FGFR1; [3]

CCN1CCN(Cc2cc3c4c(cnc3[nH]2)CN(c2c(F)c(OC)cc(OC)c2F)C(=O)C4(C)C)CC1 [Example 154, 7-(2,6-difluoro-3,5-dimethoxyphenyl)-2-[(4-ethylpiperazin-1-yl)methyl]-9,9-dimethyl-3,6,7,9-tetrahydro-8H-pyrrolo[2,3-c]-2,7-naphthyridin-8-one]
> 7.00: FGFR2; [1] | FGFR3; [2] | FGFR1; [3]

COc1cc(OC)c(F)c(N2Cc3cnc4[nH]c(CN5CCC(C#N)CC5)cc4c3C(C)(C)C2=O)c1F [Example 155, 1-{[7-(2,6-difluoro-3,5-dimethoxyphenyl)-9,9-dimethyl-8-oxo-6,7,8,9-tetrahydro-3H-pyrrolo[2,3-c]-2,7-naphthyridin-2-yl]methyl}piperidine-4-carbonitrile]
> 7.00: FGFR2; [1] | FGFR3; [2] | FGFR1; [3]

COc1cc(OC)c(F)c(N2Cc3cnc4[nH]c(CN5CC[C@H](N(C)C)C5)cc4c3C(C)(C)C2=O)c1F [Example 156, 7-(2,6-difluoro-3,5-dimethoxyphenyl)-2-{[(3S)-3-(dimethylamino)pyrrolidin-1-yl]methyl}-9,9-dimethyl-3,6,7,9-tetrahydro-8H-pyrrolo[2,3-c]-2,7-naphthyridin-8-one]
> 7.00: FGFR2; [1] | FGFR3; [2] | FGFR1; [3]

COc1cc(OC)c(F)c(N2Cc3cnc4[nH]c(CN5CC[C@@H](N(C)C)C5)cc4c3C(C)(C)C2=O)c1F [Example 157, 7-(2,6-difluoro-3,5-dimethoxyphenyl)-2-{[(3R)-3-(dimethylamino)pyrrolidin-1-yl]methyl}-9,9-dimethyl-3,6,7,9-tetrahydro-8H-pyrrolo[2,3-c]-2,7-naphthyridin-8-one]
> 7.00: FGFR2; [1] | FGFR3; [2] | FGFR1; [3]
